Data set [1] concerns refractory and/or relapsed MM. As to conditions: single agent; cited from earlier work.
For data set [2] the following is noted: cited from earlier work.
Data set [3] relates to Human multiple myeloma (MM.1S) cells. Nature of the data set: Cytotoxicity test (CellTiter 96 AQueous One). It counts as cell-based. As to conditions: 48 h, alone or combined with the hydrogels (FIG. 2). As to the method:
Human multiple myeloma (MM.1S) cells were seeded at a density of 10×10^3 cells per well onto a 96 well plate and incubated overnight at 37° C. On the day of treatment, the medium was removed and 90 μl of RPMI was added to each well. Following this, 10 μL of the hydrogels or micelles-containing hydrogels were added to the cells. The plate was then incubated for another 48 h at 37° C. Reagents from the CellTiter 96® AQueous One Solution Cell Proliferation Assay Kit (Promega, USA) and RPMI were then mixed at a volume ratio of 1:4 and 100 μL of this mixture was then added to each well and the cells were left to incubate in the dark at 37° C. for 2 h. Untreated cells were then used as the control. Subsequently, the absorbance at 490 nm was measured and the readings were then expressed as a percentage of the cell viability of the control.

Read-outs that look alike come from different tables or passages of the source.

Take `CC(C)C[C@H](NC(=O)[C@H](Cc1ccccc1)NC(=O)c1cnccn1)B(O)O` [BTZ, bortezomib]: in data set [1], the “1-year overall survival rate” value is recorded as 80% and the “longer median time to progression compared to dexamethasone” value is recorded as 78%. In data set [2] (intravenous bolus), the “time to reach mean maximum plasma concentration” value is reported as 3 min. Also, the “time to reach mean maximum plasma concentration” value in data set [2] (subcutaneous administration) is 120 min. Further, the “effect on cell viability” value in data set [3] is reported as “marked effect on cell viability”.

The values above are taken from patent US11478550B2, “Biodegradable hydrogel and methods for use thereof” (International Business Machines Corporation, priority 2018, dated 2022).
